In patent EP2098226A1, “AKAP-PKA interaction inhibitors for use in the treatment of heart diseases” (Forschungsverbund Berlin e.V., priority 2008, dated 2009):
Like-named read-outs stand apart in the source and are kept apart here.

Columns and labels:
[1] = system: Phopholamban (PLB); assay: Phospholamban phosphorylation in neonatal cardiomyocytes (Western blot); format: cell-based; conditions: 300 µM for 5 min; p-PLB relative to Calsequestrin
Experimental: Die Zellen wurden mit DMSO (control), dem β-Adrenozeptoragonisten Isoproterenol (ISO) oder dem AKAP-PKA-Interaktionshemmer FMP-API-1 bzw. dessen Derivaten (300 µM) für 5 min. inkubiert, anschließend lysiert und im Western Blot wurde phosphoryliertes Phospholamban (p-PLB) mittels eines spezifischen anti-Phospholambanantikörpers detektiert. Calsequestrin, ein Protein des sarkoplasmatischen Retikulums, dient als Ladungskontrolle. Für die Quantifizierung (densitometrische Auswertung) wurde die p-PLB-Menge auf die Menge von Calsequestrin bezogen. Angegeben sind relative densitometrische Einheiten (RDU; Mittelwerte ± SEM, drei unabhängige Experimente).

[2] = molecular target: Bindung von RIIα an Peptide, die aus der PKA-Bindedomäne von AKAP18δ abgeleitet sind (AKAP18δ-L314E) (Homo sapiens, UniProt P13861); assay: Biacore: inhibition of RIIα binding to immobilised peptide AKAP18δ-L314E; conditions: for inhibition at 100 µM: read-out: maximale Hemmung (RIIα-Bindung an das Peptid AKAP18δ-L314E); for Hemmung der Interaktion (RIIα-Bindung an das Peptid AKAP18δ-L314E): preincubation of RIIα for 2 h
Excerpt: Für das Experiment wurden Oberflächen mit dem Peptid beschichtet, mit RIIα-Untereinheiten inkubiert und die Reaktion in Biacore-Messungen verfolgt.

[3] = system: neonatalen Kardiomyozyten aus der Ratte; assay: cAMP level in neonatal cardiomyocytes, radioimmunoassay (RIA); format: cell-based; conditions: substances 50 µM in the presence of Isoproterenol 100 nM
Experimental: Die Substanzen 18882 (FMP-API-1), 1004, 1010, 1016, 1020, 1021 und 1023 steigern in Gegenwart des β-Adrenozeptoragonisten Isoproterenol den cAMP-Spiegel in neonatalen Kardiomyozyten aus der Ratte. Die Zellen wurden unbehandelt belassen, mit Isoproterenol allein (100 nM), mit Isoproterenol (100 nM) und den Substanzen (50 µM) oder mit Forskolin inkubiert. Der cAMP-Spiegel wurde durch Radioimmuno-Assay (RIA) bestimmt.

[4] = system: Interaktionen von regulatorischen RII-Untereineinheiten der PKA (RIIα und β) mit AKAP150, dem AKAP Yotiao und AKAP18δ; assay: cAMP-agarose precipitation with Western blot detection of precipitated AKAPs; format: cell-based; conditions: neonatal cardiomyocytes; FMP-API-1 100 µM; precipitated AKAPs detected by Western blot
Experimental: Die Verbindungen 18882 (FMP-API-1), 1016, 1020 und 1021 (siehe Tabelle 1) hemmen die Interaktionen von regulatorischen RII-Untereineinheiten der PKA (RIIα und β) mit AKAP150, dem AKAP Yotiao und AKAP18δ. Es wurden cAMP-Agarose-Präzipitationen mit neonatalen Kardiomyozyten in Ab- oder Anwesenheit des AKAP-PKA-Interaktionshemmers FMP-API-1 (100 µM), einer Kontrollsubstanz (100 µM) und cAMP (50 mM) durchgeführt. cAMP-Agarose bindet regulatorische Untereinheiten der PKA und deren Bindungspartner, inklusive AKAP. Präzipitierte AKAP wurden mit spezifischen Antikörpern mittels Western Blot detektiert.

[5] = system: AKAP18δ und regulatorischen RIIα- und RIIβ-Untereinheiten; assay: Oligomerisation of AKAP18δ and RII subunits in neonatal cardiomyocytes (cAMP-agarose precipitation, Western blot); format: cell-based; conditions: neonatal cardiomyocytes incubated with the substances
Excerpt: Neonatale Kardiomyozyten wurden mit den Substanzen in den angegebenen Konzentrationen inkubiert. A. Anschließend wurde eine cAMP-Agarose-Präzipitation und ein Western Blot (WB) zur Detektion von AKAP18δ durchgeführt. Als Negativkontrolle wurde die cAMP-Agarose mit cAMP inkubiert, das die Bindung von R-Untereinheiten an die Agarose verhindert. B. Detektion von RIIβ in Lysaten von neonatalen Kardiomyozyten. C. Detektion von AKAP18δ, RIIα und RIIβ nach Inkubation mit den Substanzen.

[6] = system: PKA; assay: PKA activation in neonatal cardiomyocytes (Peptag phosphorylation); format: cell-based, Ratte; conditions: 300µM for 30 min, densitometry
Experimental: (§1) Die zeigt, dass die Substanzen 1016,1020,1021 und 1027 PKA in neonatalen Kardiomyozyten aus der Ratte aktivieren. Die Zellen wurden mit DMSO (Kontrolle), die Substanzen in 300µM Konzentrationen, oder dem Adenylylzyklaseaktivator Forskolin für 30 min inkubiert. Die Aktivierung der PKA wurde anhand der Phosphorylierung des fluoreszierenden Substratpeptids Peptag verfolgt und quantifiziert. Die semiquantitative Analyse der Peptag-Peptidephosphorylierung wurde densitometrisch vorgenommen. Angegeben sind relative densitometrische Einheiten (RDU; Mittelwerte ± SD).
as §1, with “zeigt,” for “Die zeigt,”, “Forskolin (FSK)” for “Forskolin”

[7] = system: kultivierten adulten Kardiomyozyten; assay: Contractility of cultured adult cardiomyocytes (Fura-2, field stimulation); format: cell-based; conditions: 10µM; calcium fluxes and cell shortening parameters
Experimental: Die Substanzen 18882 (FMP-API-1) und 1016 steigern die Kontraktilität an kultivierten adulten Kardiomyozyten (positiv inotroper Effekt). Die Zellen wurden isoliert, mit Fura-2 beladen und einer Feldstimulation ausgesetzt. Bestimmt wurden die Calciumfluxe und Zellverkürzungsparameter (cell shortening parameters) unter basalen Bedingungen und in Gegenwart von DMSO, Isoproterenol , FMP-API-1 (10µM) oder 1016 (10µM). Dargestellt sind Mittelwerte ± SEM.

[8] = system: neonatalen Kardiomyozyten aus der Ratte; assay: cAMP level in neonatal cardiomyocytes, ELISA-based assay; format: cell-based; conditions: substances 50 µM in the presence of Isoproterenol 100 nM
Experimental: Die Substanzen 1025, 1026, 1027 und 1028 steigern in Gegenwart des β-Adrenozeptoragonisten Isoproterenol den cAMP-Spiegel in neonatalen Kardiomyozyten aus der Ratte. Die Zellen wurden unbehandelt belassen, mit Isoproterenol allein (100 nM) oder mit Isoproterenol (100 nM) und den Substanzen (50 µM) inkubiert. Der cAMP-Spiegel wurde durch einen ELISA-basierten Assay bestimmt.

[9] = molecular target: RIIα (Homo sapiens, UniProt P13861); assay: Biacore: direct binding of substances to covalently immobilised RIIα; conditions: for Bindungen des Peptids Ht31 und der Substanz an RIIα: RIIα surface incubated with peptide Ht31 and additionally with the substance; for Bindung an RIIα: surfaces covalently coated with RIIα, incubated with the substances
Excerpt: Biacore-Messungen zum Nachweis der Bindung der Substanz 1026 an RIIα. Es wurden Oberflächen durch kovalente Bindung mit RIIα beschichtet und mit der Substanz in den angegebenen Konzentrationen inkubiert.
Die Bindungen des Peptids Ht31 und der Substanz 1026 an RIIα sind additiv. Es wurden Oberflächen durch kovalente Bindung mit RIIα beschichtet und mit dem Peptid Ht31, das an die sog. Dimerisierungs- und docking-Domäne (DD-Domäne) von regulatorischen Untereinheiten der PKA bindet, inkubiert.
Es wurden Oberflächen durch kovalente Bindung mit RIIα beschichtet und mit den Substanzen inkubiert.

[10] = molecular target: PKA (Homo sapiens, UniProt P31323); assay: PKA activation in vitro (Peptag substrate peptide phosphorylation); format: biochemical; conditions: 1 mM, catalytic subunits with or without RIIβ subunits
Experimental: Die Substanz 18882 (FMP-API-1) aktiviert PKA in vitro. Das Experiment wurde wie in Abb. 24 dargestellt durchgeführt. Hier wurde zusätzlich mit AKAP18δ inkubiert. Katalytische Untereinheiten der PKA wurden in An- oder Abwesenheit von regulatorischen RIIβ-Untereinheiten mit der Substanz 18882 (FMP-API-1; 1 mM) inkubiert. Die Aktivierung der PKA wurde anhand der Phosphorylierung des fluoreszierenden Substratpeptids Peptag verfolgt und quantifiziert. Die semiquantitative Analyse der Peptag-Peptidphosphorylierung wurde densitometrisch vorgenommen (Mittelwerte ± SEM). Die Gegenwart des AKAP hat einen geringen zusätzlich Einfluß auf den Effekt der Substanz 18882.

[11] = system: Rattenherzen; assay: Langendorff isolated heart: left ventricular pressure, contraction and relaxation rates; design: species or system Ratte; conditions: perfused rat hearts, 10 µM, n ≥ 8 hearts per condition
Experimental: Bestimmung der linksventrikulären Druckentwicklung, der maximalen Kontraktions- (CR) und Relaxationsraten (RR) von Rattenherzen (in %) in einer Langendorff-Herz-Apparatur.
zeigt den Einfluss von Isoproterenol, DMSO, den Substanzen 1016, 1020 und 1021 auf die relative Zellgröße der Kardiomyozyten bezogen auf die durchschnittliche Zellgröße von Kontrollzellen (%). Kardiomyozyten wurden für 48h entweder unbehandelt belassen oder mit 15 µM Isoproterenol als Kontrollen inkubiert. Da die Kardiomyozyten zusätzlich zu der Substanz mit höchstens 0,1% DMSO inkubiert wurden, wurden Kardiomyozyten nur mit 0,1% für 48h inkubiert. Des Weiteren wurde ein möglicher Effekt von DMSO auf die Isoproterenolinduzierte Hypertrophie untersucht und die Zellen demnach mit 0,1% DMSO für 20 min präinkubiert und anschließend mit 15 µM Isoproterenol für 48 h inkubiert. Außerdem wurden Kardiomyozyten mit den Substanzen 1016, 1020 und 1021 in den Konzentrationen 3, 10, 30, 50 oder 75 µM für 48 h ohne Isoproterenol inkubiert. Des Weiteren wurden Kardiomyozyten mit den Substanzen 1016, 1020 und 1021 in den Konzentrationen 3, 10, 30, 50 oder 75 µM präinkubiert. Dann wurde Isoproterenol (15 µM) zu den Endkonzentrationen von 3, 10, 30, 50 oder 75 µM zugegeben und die Kardiomyozyten damit für 48 h inkubiert. Nach der Inkubation mit den Substanzen wurde α-Aktinin immunfluoreszenzmikroskopisch dargestellt. […]

RIIα, sequence (P13861 whole entry): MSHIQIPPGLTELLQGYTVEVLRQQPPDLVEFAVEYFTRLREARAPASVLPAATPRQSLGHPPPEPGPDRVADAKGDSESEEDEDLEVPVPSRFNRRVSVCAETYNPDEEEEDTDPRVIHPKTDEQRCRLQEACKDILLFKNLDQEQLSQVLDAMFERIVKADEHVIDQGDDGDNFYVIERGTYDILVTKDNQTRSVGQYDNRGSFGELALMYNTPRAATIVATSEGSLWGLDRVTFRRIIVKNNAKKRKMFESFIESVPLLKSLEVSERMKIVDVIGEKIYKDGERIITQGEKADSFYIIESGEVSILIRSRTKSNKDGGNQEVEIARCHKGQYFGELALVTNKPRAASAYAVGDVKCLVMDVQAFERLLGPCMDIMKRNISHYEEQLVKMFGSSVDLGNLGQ
Bindung von RIIα an Peptide, die aus der PKA-Bindedomäne von AKAP18δ abgeleitet sind (AKAP18δ-L314E), sequence (P13861 whole entry, stated change not applied): as the sequence (P13861 whole entry) above
PKA (Homo sapiens, UniProt P31323), sequence (P31323 whole entry): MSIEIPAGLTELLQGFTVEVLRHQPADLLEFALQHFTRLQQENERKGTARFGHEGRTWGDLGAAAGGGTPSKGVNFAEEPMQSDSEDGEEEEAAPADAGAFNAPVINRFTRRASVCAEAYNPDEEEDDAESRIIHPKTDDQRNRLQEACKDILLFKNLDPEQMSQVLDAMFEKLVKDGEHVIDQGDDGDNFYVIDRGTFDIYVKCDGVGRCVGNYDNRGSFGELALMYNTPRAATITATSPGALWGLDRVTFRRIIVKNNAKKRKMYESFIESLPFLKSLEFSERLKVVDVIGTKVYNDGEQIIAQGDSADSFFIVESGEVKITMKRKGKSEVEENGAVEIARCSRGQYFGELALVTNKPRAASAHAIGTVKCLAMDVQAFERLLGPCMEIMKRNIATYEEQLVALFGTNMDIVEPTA

SMILES	Phosphorylierung von Phopholamban (PLB) [1]	inhibition at 100 µM ([2]; concentration 100 µM)	Hemmung der Interaktion (RIIα-Bindung an das Peptid AKAP18δ-L314E) [2]	cAMP-Spiegel [3]	Hemmung der Interaktionen von regulatorischen RII-Untereineinheiten der PKA (RIIα und β) mit AKAP150, Yotiao und AKAP18δ [4]	Oligomerisierung (Oligomers) von AKAP18δ und regulatorischen RIIα- und RIIβ-Untereinheiten [5]	Aktivierung der PKA in neonatalen Kardiomyozyten [6]	Kontraktilität (positiv inotroper Effekt) [7]	inhibition at 100 µM [2]	cAMP-Spiegel [8]	Bindungen des Peptids Ht31 und der Substanz an RIIα [9]	Bindung an RIIα [9]	Aktivierung der PKA in vitro [10]	Zunahme der gemessenen Parameter (linksventrikuläre Druckentwicklung, maximale Kontraktions- (CR) und Relaxationsraten (RR)) [11]
Nc1cc(Cc2ccc(O)cc2)ccc1O [Verbindung 1016, 3-Amino-4,4'-dihydroxydiphenylmethan]	induzieren eine Zunahme	~60%	~50%	steigern	hemmen	induzieren die Oligomerisierung	aktivieren	steigern						
CC(c1ccc(O)c(N)c1)c1ccc(O)c(N)c1 [Verbindung 1020, 1,1-Bis-(3-Amino-4-hydroxyphenyl)-ethan]	induzieren eine Zunahme		~50%	steigern	hemmen	induzieren die Oligomerisierung	aktivieren		~50%					
CC(c1ccc(O)cc1)c1ccc(O)c(N)c1 (stereo not shown) [Verbindung 1021, 3-Amino-1,1-bis-(4-hydroxyphenyl)-ethan]	induzieren eine Zunahme		~40%	steigern	hemmen	induzieren die Oligomerisierung	aktivieren		~50%					
Oc1ccc(Cc2ccccc2)cc1O [Verbindung 1027, 4-Benzyl-pyrocatechol]							aktivieren			steigern	additiv	konzentrationsabhängigen Bindung		
O=C(c1ccc(O)c(O)c1)c1ccc(O)c(O)c1 [Verbindung 1028, Bis-(3,4-dihydroxy-phenyl)-methanon]										steigern	additiv	konzentrationsabhängigen Bindung		
COc1ccc(Cc2ccc(OC)c(N)c2)cc1N [Verbindung 1030]												konzentrationsabhängigen Bindung		
Nc1cc(Cc2ccc(O)c(N)c2)ccc1O [Verbindung 18882, 3,3'-Diamino-4,4'-dihydroxydiphenylmethan, reference compound]	induzieren eine Zunahme			steigern	hemmen	induzieren die Oligomerisierung		steigern					aktiviert	~17%
